Drawing on the supplement of paper PMC10307832, this text covers relative viability for four cell lines.

What all share (test): relative viability (nuclei count vs DMSO), 5 days (fraction); higher = more cells survive
Compound in the test “IPA-3 + Palbociclib”: C1=CC=C2C(=C1)C=CC(=C2SSC3=C(C=CC4=CC=CC=C43)O)O [IPA-3] + CC(=O)c1c(C)c2cnc(Nc3ccc(N4CCNCC4)cn3)nc2n(C2CCCC2)c1=O [Palbociclib] (partner 0.5 µM)
Summed up: (§1)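 Medians of duplicate plates are given as relative viability. That measure is the nuclei count in treated wells divided by the count in vehicle wells. Counts were taken on 4× images of lung cancer cell lines in 1536-well plates, 5 days after pin-tool dosing the day after seeding with one drug alone or a fixed anchor-drug dose plus five library-drug doses (not always all listed) in √10 steps.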

Compound in the test “IPA-3 + Dasatinib”: C1=CC=C2C(=C1)C=CC(=C2SSC3=C(C=CC4=CC=CC=C43)O)O [IPA-3] + Cc1nc(Nc2ncc(C(=O)Nc3c(C)cccc3Cl)s2)cc(N2CCN(CCO)CC2)n1 [Dasatinib] (partner 0.075 µM)
A digest of the protocol: as §1

Compound in the test “Doramapimod + OSI-027”: Cc1ccc(-n2nc(C(C)(C)C)cc2NC(=O)Nc2ccc(OCCN3CCOCC3)c3ccccc23)cc1 [Doramapimod] + COc1cccc2cc(-c3nc([C@H]4CC[C@H](C(=O)O)CC4)n4ncnc(N)c34)[nH]c12 [OSI-027] (partner 0.5 µM)
A digest of the protocol:
as §1

Compound in the test “Doramapimod + AZD7762”: Cc1ccc(-n2nc(C(C)(C)C)cc2NC(=O)Nc2ccc(OCCN3CCOCC3)c3ccccc23)cc1 [Doramapimod] + NC(=O)Nc1cc(-c2cccc(F)c2)sc1C(=O)N[C@H]1CCCNC1 [AZD7762] (partner 0.2 µM)
A digest of the protocol: as §1

As for LOU-NH91, the relative viability in the test with IPA-3 + Palbociclib (first compound 0.2 µM) was 0.535; with IPA-3 + Palbociclib (first compound 0.6325 µM), 0.525; with IPA-3 + Palbociclib (first compound 2 µM), 0.552; with IPA-3 + Palbociclib (first compound 6.325 µM), 0.511; in the test with IPA-3 + Palbociclib (first compound 20 µM), 0.572; with IPA-3 + Dasatinib (first compound 0.2 µM), 0.628. Moreover, the relative viability with IPA-3 + Dasatinib (first compound 0.6325 µM) turned out to be 0.568; in the test with IPA-3 + Dasatinib (first compound 2 µM) it was 0.573; with IPA-3 + Dasatinib (first compound 6.325 µM), 0.542; with IPA-3 + Dasatinib (first compound 20 µM), 0.697; with Doramapimod + OSI-027 (first compound 0.02 µM) it was 0.776; with Doramapimod + OSI-027 (first compound 0.06325 µM), 0.752. The relative viability with Doramapimod + OSI-027 (first compound 0.2 µM) is 0.738; with Doramapimod + OSI-027 (first compound 0.6325 µM), 0.769; in the test with Doramapimod + OSI-027 (first compound 2 µM), 0.559; with Doramapimod + AZD7762 (first compound 0.02 µM) it was 0.757; with Doramapimod + AZD7762 (first compound 0.06325 µM), 0.739; with Doramapimod + AZD7762 (first compound 0.2 µM), 0.7. Moreover, the values for the relative viability with Doramapimod + AZD7762 (first compound 0.6325 µM) and with Doramapimod + AZD7762 (first compound 2 µM) were 0.744 and 0.575, respectively.

Consider LU99A, for which the relative viability with IPA-3 + Palbociclib (first compound 0.2 µM) was found to be 0.437; in the test with IPA-3 + Palbociclib (first compound 0.6325 µM), 0.376; with IPA-3 + Palbociclib (first compound 2 µM), 0.425; in the test with IPA-3 + Palbociclib (first compound 6.325 µM) it was 0.452; with IPA-3 + Palbociclib (first compound 20 µM), 0.394; in the test with IPA-3 + Dasatinib (first compound 0.2 µM), 0.584. Further, the relative viability was 0.61 with IPA-3 + Dasatinib (first compound 0.6325 µM); 0.642 with IPA-3 + Dasatinib (first compound 2 µM); 0.725 with IPA-3 + Dasatinib (first compound 6.325 µM); 0.669 with IPA-3 + Dasatinib (first compound 20 µM); 0.299 in the test with Doramapimod + OSI-027 (first compound 0.02 µM); 0.341 in the test with Doramapimod + OSI-027 (first compound 0.06325 µM). The relative viability was 0.261 in the test with Doramapimod + OSI-027 (first compound 0.2 µM); 0.344 with Doramapimod + OSI-027 (first compound 0.6325 µM); 0.272 with Doramapimod + OSI-027 (first compound 2 µM); 0.349 with Doramapimod + AZD7762 (first compound 0.02 µM); 0.37 with Doramapimod + AZD7762 (first compound 0.06325 µM); 0.339 with Doramapimod + AZD7762 (first compound 0.2 µM). Moreover, the values for the relative viability in the test with Doramapimod + AZD7762 (first compound 0.6325 µM) and with Doramapimod + AZD7762 (first compound 2 µM) were 0.339 and 0.326, respectively.

As to LXF-289, the relative viability in the test with IPA-3 + Palbociclib (first compound 0.2 µM) is 0.606; with IPA-3 + Palbociclib (first compound 0.6325 µM), 0.579; in the test with IPA-3 + Palbociclib (first compound 2 µM) it was 0.556; with IPA-3 + Palbociclib (first compound 6.325 µM), 0.568; with IPA-3 + Palbociclib (first compound 20 µM) it was 0.642; with IPA-3 + Dasatinib (first compound 0.2 µM) it was 0.279. Also, the relative viability with IPA-3 + Dasatinib (first compound 0.6325 µM) came to 0.264; in the test with IPA-3 + Dasatinib (first compound 2 µM), 0.28; with IPA-3 + Dasatinib (first compound 6.325 µM) it was 0.176; with IPA-3 + Dasatinib (first compound 20 µM) it was 0.237; in the test with Doramapimod + OSI-027 (first compound 0.02 µM) it was 0.765; with Doramapimod + OSI-027 (first compound 0.06325 µM), 0.762. Besides, the relative viability in the test with Doramapimod + OSI-027 (first compound 0.2 µM) was found to be 0.72; in the test with Doramapimod + OSI-027 (first compound 0.6325 µM), 0.686; with Doramapimod + OSI-027 (first compound 2 µM), 0.605; with Doramapimod + AZD7762 (first compound 0.02 µM), 1.07; in the test with Doramapimod + AZD7762 (first compound 0.06325 µM), 1.16; with Doramapimod + AZD7762 (first compound 0.2 µM), 1.14. For the same cell line, the relative viability was 1.1 with Doramapimod + AZD7762 (first compound 0.6325 µM) and 1.12 with Doramapimod + AZD7762 (first compound 2 µM).

As to NCI-H23, the relative viability stood at 0.477 with IPA-3 + Palbociclib (first compound 0.2 µM); 0.4 with IPA-3 + Palbociclib (first compound 0.6325 µM); 0.486 with IPA-3 + Palbociclib (first compound 2 µM); 0.486 with IPA-3 + Palbociclib (first compound 6.325 µM); 0.542 with IPA-3 + Palbociclib (first compound 20 µM); 0.598 in the test with IPA-3 + Dasatinib (first compound 0.2 µM). Moreover, the relative viability was 0.795 with IPA-3 + Dasatinib (first compound 0.6325 µM); 0.861 with IPA-3 + Dasatinib (first compound 2 µM); 0.724 with IPA-3 + Dasatinib (first compound 6.325 µM); 0.617 in the test with IPA-3 + Dasatinib (first compound 20 µM); 0.646 with Doramapimod + OSI-027 (first compound 0.02 µM); 0.601 with Doramapimod + OSI-027 (first compound 0.06325 µM). Besides, the relative viability turned out to be 0.663 with Doramapimod + OSI-027 (first compound 0.2 µM); 0.491 with Doramapimod + OSI-027 (first compound 0.6325 µM); 0.628 in the test with Doramapimod + OSI-027 (first compound 2 µM); 0.247 with Doramapimod + AZD7762 (first compound 0.02 µM); 0.221 with Doramapimod + AZD7762 (first compound 0.06325 µM); 0.363 with Doramapimod + AZD7762 (first compound 0.2 µM). The relative viability with Doramapimod + AZD7762 (first compound 0.6325 µM) came out at 0.354; with Doramapimod + AZD7762 (first compound 2 µM), 0.143.
